Test results as given in patent US6908919B2, “Substituted polycyclic aryl and heteroaryl pyrazinones useful for selective inhibition of the coagulation cascade” (Pharmacia Corporation, priority 1999, dated 2005).

Experiments:
[1] = molecular target: T1, recombinant soluble tissue factor and recombinant human factor VIIa (TF-VIIa) (Homo sapiens, UniProt P08709); assay: TF-VIIa Assay; format: biochemical; settings: for inhibition at 30 µM: 1 h, at 30 µM inhibitor; for IC50: read-out: IC50 TF-VIIa
T1 construct: conversion of coagulation factor VII to VIIa by Xa; purchased American Diagnostica, Greenwich Conn; host or cells: VIIa purchased; soluble TF made in house in E. coli

Human thrombin [2] = molecular target: T2, Human thrombin (Homo sapiens, UniProt P00734); assay: biochemical; settings: for inhibition at 100 µM: read-out: % Inhibition Thrombin II at 100 μM
Human factor Xa = Human factor Xa (Homo sapiens, UniProt P00742); assay: Xa Assay; format: biochemical; set-up: purchased Enzyme Research Laboratories, South Bend Ind; settings: for inhibition at 100 µM: at 100 μM inhibitor; for % Inhibition Factor Xa (30 µM): at 30 µM inhibitor
Human thrombin [3] = molecular target: T2, Human thrombin

T1 sequence (P08709 61-212 limits assumed): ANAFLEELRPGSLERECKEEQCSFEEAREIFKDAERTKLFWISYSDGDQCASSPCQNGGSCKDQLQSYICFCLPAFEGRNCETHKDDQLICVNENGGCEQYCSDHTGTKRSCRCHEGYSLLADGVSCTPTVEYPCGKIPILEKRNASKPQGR
T1 sequence (P08709 213-466 limits assumed): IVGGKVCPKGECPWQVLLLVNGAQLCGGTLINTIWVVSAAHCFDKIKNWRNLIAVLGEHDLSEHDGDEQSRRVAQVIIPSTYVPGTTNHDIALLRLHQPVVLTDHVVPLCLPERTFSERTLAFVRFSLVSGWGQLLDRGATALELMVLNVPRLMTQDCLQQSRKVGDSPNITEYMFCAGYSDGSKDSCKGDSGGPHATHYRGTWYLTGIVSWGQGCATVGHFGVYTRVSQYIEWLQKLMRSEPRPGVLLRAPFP
T1 sequence (P13726 33-251 partner limits assumed): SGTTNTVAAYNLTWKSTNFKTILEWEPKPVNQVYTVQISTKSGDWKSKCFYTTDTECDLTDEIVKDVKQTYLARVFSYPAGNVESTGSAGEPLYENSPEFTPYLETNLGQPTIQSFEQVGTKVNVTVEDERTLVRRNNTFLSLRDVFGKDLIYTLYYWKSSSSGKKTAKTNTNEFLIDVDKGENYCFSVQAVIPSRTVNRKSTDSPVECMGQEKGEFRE
Chain of Human factor Xa (P00742 41-179 limits assumed): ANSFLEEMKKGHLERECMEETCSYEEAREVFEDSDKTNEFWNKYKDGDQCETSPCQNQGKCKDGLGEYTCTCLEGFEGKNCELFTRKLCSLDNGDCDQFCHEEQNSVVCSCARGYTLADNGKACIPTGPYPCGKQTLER
Chain of Human factor Xa (P00742 235-488 limits assumed): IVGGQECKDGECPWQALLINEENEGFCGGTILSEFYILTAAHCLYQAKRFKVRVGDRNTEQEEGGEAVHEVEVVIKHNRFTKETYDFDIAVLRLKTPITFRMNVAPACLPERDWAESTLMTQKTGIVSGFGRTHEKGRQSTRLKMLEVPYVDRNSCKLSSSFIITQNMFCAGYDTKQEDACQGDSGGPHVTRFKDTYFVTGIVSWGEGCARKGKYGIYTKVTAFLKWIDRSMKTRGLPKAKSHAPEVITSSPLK

SMILES	inhibition at 100 µM (Human thrombin [2]) [%]	inhibition at 100 µM (Human factor Xa) [%]	IC50 (Human thrombin [2]) [nM]	IC50 [1] [nM]	other results
N=C(N)c1ccc(Cc2cccc(-n3c(-c4cccc(N)c4)c(Cl)nc(NC4CCC4)c3=O)c2)cc1 [Example 138]	39	28			inhibition at 30 µM [1]: 8%
N=C(N)c1ccc(NC(=O)Cn2c(-c3cccc(N)c3)c(Cl)nc(NC3CCC3)c2=O)cc1 [Example 141]	11	13			inhibition at 30 µM [1]: 2%
Nc1cccc(-c2c(Cl)nc(NC3CCC3)c(=O)n2CC(=O)NCc2ccc(-c3n[nH]c(=O)[nH]3)cc2)c1 [Example 153]			> 30000		inhibition at 30 µM [1]: 12%; % Inhibition Factor Xa (30 µM) (Human factor Xa): 8%
CC(C)Nc1nc(Cl)c(-c2cc(N)cc(C(=O)NCc3cccc(C(F)(F)F)c3)c2)n(CC(=O)NCc2ccc(C(=N)N)cc2)c1=O [Example 128-13]	36	26		49.1	
CC(C)Nc1nc(Cl)c(-c2cc(N)cc(C(=O)NCc3cccc(F)c3)c2)n(CC(=O)NCc2ccc(C(=N)N)cc2)c1=O [Example 128-12]	47	33		11	
CC(C)NC(=N)c1ccc(CNC(=O)Cn2c(-c3cccc(N)c3)c(Cl)nc(NC3CCC3)c2=O)cc1 [Example 161]				88400	% Inhibition Thrombin II (30 µM) (Human thrombin [3]): 7%
COC(=O)c1cc(N)cc(-c2c(Cl)nc(NC3CCC3)c(=O)n2CC(=O)NCc2ccc(C(=N)N)cc2)c1 [Example 127]				31	% Inhibition Thrombin II (30 µM) (Human thrombin [3]): 23%; % Inhibition Factor Xa (30 µM) (Human factor Xa): 27%
CN(C)CCNC(=N)c1ccc(CNC(=O)Cn2c(-c3cccc(N)c3)c(Cl)nc(NC3CCC3)c2=O)cc1 [Example 166]				63000	% Inhibition Thrombin II (30 µM) (Human thrombin [3]): 5%; % Inhibition Factor Xa (30 µM) (Human factor Xa): 2%
CC(C)Nc1nc(Cl)c(-c2cc(N)cc(C(=O)NC3CCCC3)c2)n(CC(=O)NCc2ccc(C(=N)N)cc2)c1=O [Example 128-16]		36	10200	7	
CC(C)Nc1nc(Cl)c(-c2cccc(N)c2)n(CC(=O)NCC2CCC(C(=N)N)C=N2)c1=O (stereo not shown) [Example 150]			25000	360	% Inhibition Factor Xa (30 µM) (Human factor Xa): 4%
Nc1cccc(-c2c(Cl)nc(NC3CCC3)c(=O)n2CC(=O)NCc2ccc3c(N)nsc3c2)c1 [Example 145]			> 30000	26800	% Inhibition Factor Xa (30 µM) (Human factor Xa): 3%
Nc1cccc(-c2c(Cl)nc(NC3CCC3)c(=O)n2CC(=O)NCc2ccc3ccnc(N)c3c2)c1 [Example 147]			> 30000		inhibition at 30 µM [1]: 5%; IC50 (Human factor Xa): > 30000 nM
N=C(N)c1ccc(CNC(=O)Cn2c(-c3cc(N)nc(C(=O)O)c3)cnc(NC3CCC3)c2=O)cc1 [Example 120]	47	43		100	
COC(=O)c1cccc(Sc2ccc(N)cc2-c2c(Cl)nc(NC(C)C)c(=O)n2CC(=O)NCc2ccc(C(=N)N)cc2)c1 [Example 112]			13000	270	IC50 (Human factor Xa): 35000 nM
CC(C)Nc1nc(Cl)c(-c2cc(N)cc(C(=O)NC(C)(C)c3ccccc3)c2)n(CC(=O)NCc2ccc(C(=N)N)cc2)c1=O [Example 128-4]		42	24000	10.7	
CC(C)Nc1ncc(-c2cc(N)cc(N)c2)n(CC(=O)NCc2ccc(C(=N)N)cc2)c1=O [Example 121]				9.5	inhibition at 83 µM (Human thrombin [2]; read-out: % Inhibition Thrombin II at 83 μM): 44%; inhibition at 83 µM (Human factor Xa; at 83 μM inhibitor): 23%
C/N=C(/NC)c1ccc(CNC(=O)Cn2c(-c3cccc(N)c3)c(Cl)nc(NC3CCC3)c2=O)cc1 [Example 162]					inhibition at 30 µM [1]: 35%; % Inhibition Thrombin II (30 µM) (Human thrombin [3]): 2%
CC(C)Nc1nc(Cl)c(-c2cc(N)cc(C(=O)NCc3cc(C(F)(F)F)cc(C(F)(F)F)c3)c2)n(CC(=O)NCc2ccc(C(=N)N)cc2)c1=O [Example 128-6]	40	29		332	
CC(C)Nc1nc(Cl)c(-c2cc(N)cc(C(=O)NCc3cccnc3)c2)n(CC(=O)NCc2ccc(C(=N)N)cc2)c1=O [Example 128-18]	21			18.5	
CC(C)Nc1nc(Cl)c(-c2cc(N)cc(C(=O)NC3CCCCCC3)c2)n(CC(=O)NCc2ccc(C(=N)N)cc2)c1=O [Example 128-17]		41	20200	10.9	
CC(C)Nc1nc(Cl)c(-c2cc(N)cc(C(=O)NCc3ccccn3)c2)n(CC(=O)NCc2ccc(C(=N)N)cc2)c1=O [Example 128-19]	37	18		26.1	
Nc1cccc(-c2c(Cl)nc(NC3CCC3)c(=O)n2CC(=O)NCc2ccc3[nH]cnc3c2)c1 [Example 146]			> 30000		% Inhibition Factor Xa (30 µM) (Human factor Xa): 5%
N=C(N)c1ccc(CCC(=O)Cn2c(-c3cccc(N)c3)c(Cl)nc(NC3CCC3)c2=O)cc1 [Example 142]			4600	200	
